In patent US8148424B2, “Tocopherols, tocotrienols, other chroman and side chain derivatives and uses thereof” (Research Development Foundation, priority 1998, dated 2012):
≈ marks a conversion by molar mass, not a printed value. Where two headings read alike, the source gives them in different places.

Assays:
[1] = system: RL-95-2; test: Bioassay for apoptosis (apoptotic EC50); assay type: cell-based, human; conditions: Homo sapiens, RL95-2, RL-95-2; unit inferred
Procedure: (§1) Cells were cultured at 1.5×10^5 cells/well in 12 well plates. Cells were allowed to adhere overnight, then incubated with novel test compounds at 0.01, 0.1, 1, 5, 10 & 20 μg/mL for 1, 2 and 3 days. After treatment, cells (floating+trypsin released adherent cells) were pelleted, washed and stained with 2 μg/ml DAPI (4′,6-diamidine-2′-phenylindole dihydrochloride) in 100% methanol for 15 minutes at 37° C. and/or 3′-OH ends resulting from DNA fragmentation were detected with the TUNEL (terminal deoxynucleotidyl transferase-mediated dUTP-X 3′ nick end-labeling) technique, and then viewed using a Zeiss ICM 405 microscope. Cells whose nucleus contained clearly condensed or fragmented chromatin or stained for fragmented DNA in the TUNEL assay were scored as apoptotic. Data are presented as percent cells undergoing apoptosis.

[2] = system: MCF-7; test: Bioassay for apoptosis (apoptotic EC50); assay type: cell-based, human; conditions: Homo sapiens, MCF7, MCF-7; unit inferred
Procedure: as §1

[3] = system: PC-3; test: Bioassay for apoptosis (apoptotic EC50); assay type: cell-based, human; conditions: Homo sapiens, PC-3, PC-3; unit inferred
Procedure: as §1

[4] = system: MDA-MB-231; test: Bioassay for apoptosis (apoptotic EC50); assay type: cell-based, human; conditions: Homo sapiens, MDA-MB-231, MDA-MB-231; unit inferred
Procedure: as §1

[5] = system: MDA-MB-435; test: Bioassay for apoptosis (apoptotic EC50); assay type: cell-based, human
Procedure: as §1

[6] = system: LnCaP; test: Bioassay for apoptosis (apoptotic EC50); assay type: cell-based, human; conditions: Homo sapiens, unit inferred
Procedure: as §1

[7] = system: C-170; test: Bioassay for apoptosis (apoptotic EC50); assay type: cell-based, human; conditions: Homo sapiens, C170, C-170; unit inferred
Procedure: as §1

[8] = system: HL-60; test: Bioassay for apoptosis (apoptotic EC50); assay type: cell-based, human; conditions: Homo sapiens, HL-60, HL-60; unit inferred
Procedure: as §1

[9] = system: ME-180; test: Bioassay for apoptosis (apoptotic EC50); assay type: cell-based, human; conditions: Homo sapiens, ME-180, ME-180; unit inferred
Procedure: as §1

[10] = system: T47D; test: Bioassay for apoptosis (apoptotic EC50); assay type: cell-based; conditions: Homo sapiens, unit inferred
Procedure: as §1

[11] = system: HMEC; test: Bioassay for apoptosis (apoptotic EC50); assay type: cell-based; conditions: Homo sapiens, unit inferred
Procedure: as §1

[12] = system: MCF-10A; test: Bioassay for apoptosis (apoptotic EC50); assay type: cell-based; conditions: Homo sapiens, unit inferred
Procedure: as §1

[13] = system: human cancer cells from a wide variety of cell lineages; test: Apoptosis induction in a battery of tumor cells; assay type: cell-based; conditions: breast, prostate, leukemia/lymphoid, cervical, ovarian, endometrial, colon, lung cell lines
Procedure: as §1

[14] = system: A-549; test: Bioassay for apoptosis (apoptotic EC50); assay type: cell-based, human; conditions: Homo sapiens, A549, unit inferred
Procedure: as §1

[15] = system: Jurkat; test: Bioassay for apoptosis (apoptotic EC50); assay type: cell-based, human; conditions: Homo sapiens, unit inferred
Procedure: as §1

[16] = system: HT-29; test: Bioassay for apoptosis (apoptotic EC50); assay type: cell-based, human; conditions: Homo sapiens, unit inferred
Procedure: as §1

[17] = system: PREC; test: Bioassay for apoptosis (apoptotic EC50); assay type: cell-based; conditions: Homo sapiens, unit inferred
Procedure: as §1

[18] = system: DU-145; test: Bioassay for apoptosis (apoptotic EC50); assay type: cell-based, human; conditions: Homo sapiens, unit inferred
Procedure: as §1

[19] = system: DLD-1; test: Bioassay for apoptosis (apoptotic EC50); assay type: cell-based, human; conditions: Homo sapiens, unit inferred
Procedure: as §1

[20] = system: MCF-7 cells; test: Apoptosis by DAPI staining (Example 8); assay type: cell-based, human; conditions: 5% serum, DAPI staining at three day treatment
Procedure: (§2) MDA-MB-435 and MCF-7 cells at 1.5×10^5/well in 12 well plates for apoptosis and 1.5×10^4/well in 96 well plates for DNA synthesis arrest were incubated overnight in culture media and treated with α-tocopherol, α-tocotrinel, compound 1, 6-0-carboxymethyl alpha-tocotrienol (6-0-CM-α-T, 44), and vitamin E succinate (VES) at different concentrations in experimental media (2% serum for MDA-MB-435 cells and 5% serum for MCF-7 cells). DNA synthesis arrest was determined by ^3H-uptake at one day treatment and apoptosis was detected by DAPI staining at three day treatment. EC50 was calculated as the dosage of test compounds that gave 50% growth inhibition.

[21] = system: MDA-MB-435 cells; test: Apoptosis by DAPI staining (Example 8); assay type: cell-based, human; conditions: for EC50: MDA-MB-435, 2% serum, DAPI staining at three day treatment
Procedure: as §2

[22] = system: MCF-7 cells; test: DNA synthesis arrest by 3H-uptake (Example 8); assay type: cell-based, human; conditions: 3H-uptake at one day treatment
Procedure: as §2

[23] = system: MDA-MB-435 cells; test: DNA synthesis arrest by 3H-uptake (Example 8); assay type: cell-based, human; conditions: for EC50: MDA-MB-435, 2% serum, 3H-uptake at one day treatment
Procedure: as §2

[24] = system: breast tumor cell line MDA-MB-435; test: Bioassay for DNA synthesis arrest, naturally occurring vitamin E compounds; assay type: cell-based, human; conditions: Table 1
Procedure: Table 1 provides tumor growth inhibitory properties of naturally occurring vitamin E compounds against the breast tumor cell line MDA-MB-435.
To assay DNA synthesis, all cells were used at 2.5×10^5/ml. Cells were treated with each of the compounds at concentrations of 0.01, 0.1, 1, 5, 10 and 20 μg/mL and 200 μl of each treatment group were plated in quadruplicate in a 96 well culture plate (Corning, Corning N.Y.). Experiments were done in duplicate, one plate used for viability testing and the other plate for examination of ^3H-TdR uptake to monitor DNA synthesis. Plates were cultured for 48 hours at 37° C., 5% CO2. Eight hours prior to the end of incubation, ^3H-TdR was added to one of the duplicate plates and incubation continued for 8 hours.
The cells were then harvested (trypsinization was required to harvest adherent cells), and isotope uptake was determined as counts per minute (cpm). For viability studies, at the end of the incubation, the cells were removed from the wells and viability checked by the Trypan Blue Exclusion method. Percent viability and percent DNA synthesis in comparison to untreated or vehicle treated cells of each treatment group were calculated.

[25] = Homo sapiens, MDA-MB-435, MDA-MB-435, unit inferred, read-out: apoptotic EC50
[26] = MDA-MB-435, Table 1, read-out: EC50 for Apoptosis

Compound | EC50 [1] [µg/mL] | EC50 [2] [µg/mL] | EC50 [3] [µg/mL] | EC50 [5, 25] [µg/mL] | EC50 [6] [µg/mL] | EC50 [7] [µg/mL] | EC50 [8] [µg/mL] | EC50 [9] [µg/mL] | EC50 [10] [µg/mL] | EC50 [12] [µg/mL] | growth inhibitory (apoptotic inducing) properties specific for human cancer cells [13] | EC50 [14] [µg/mL] | EC50 [15] [µg/mL] | EC50 [16] [µg/mL] | EC50 [18] [µg/mL] | EC50 [19] [µg/mL] | also measured
Cc1cc(OCC(=O)O)c(C)c2c1O[C@](C)(CCC[C@H](C)CCC[C@H](C)CCCC(C)C)CC2 [Compound 7, 2,5,8-trimethyl-(2R-(4R,8R,12-trimethyltridecyl)chroman-6-yloxy) acetic acid] | 5 to 10 (≈ 10.5 to 21.1 µM) | 10 to 20 (≈ 21.1 to 42.1 µM) | 5 to 10 (≈ 10.5 to 21.1 µM) | 5 to 10 | 2.5 to 5 (≈ 5.27 to 10.5 µM) | 10 to 20 (≈ 21.1 to 42.1 µM) | 5 to 10 (≈ 10.5 to 21.1 µM) | 5 to 10 (≈ 10.5 to 21.1 µM) | > 20 | > 20 | effective | – | – | – | – | – | EC50 [4]: 5 to 10 µg/mL (≈ 10.5 to 21.1 µM); EC50 [11]: > 20 µg/mL
Cc1c(C)c2c(c(C)c1OCC(=O)O)CC[C@@](C)(CCCC(C)CCCC(C)CCCC(C)C)O2 (stereo partly shown) [Compound 17] | – | 10 to 20 (≈ 20.5 to 40.9 µM) | – | – | 10 to 20 (≈ 20.5 to 40.9 µM) | 20 to 30 (≈ 40.9 to 61.4 µM) | 10 to 20 (≈ 20.5 to 40.9 µM) | 20 to 30 (≈ 40.9 to 61.4 µM) | 10 to 20 (≈ 20.5 to 40.9 µM) | > 20 | effective | > 20 | 10 to 20 (≈ 20.5 to 40.9 µM) | > 20 | – | – | –
CC(C)=CCC/C(C)=C/C=C/C(C)=C/[C@]1(C)CCc2c(C)c(OCC(=O)O)c(C)c(C)c2O1 [Compound 18] | – | > 20 | – | > 20 | – | > 20 | > 20 | > 20 | – | – | – | > 20 | > 20 | > 20 | – | – | EC50 [17]: > 20 µg/mL
Cc1c(C)c2c(c(C)c1OCC(=O)O)C=C[C@@](C)(CCC[C@H](C)CCC[C@H](C)CCCC(C)C)O2 [Compound 20, 2,5,7,8-tetramethyl-(2R-(4R,8R,12-trimethyltridecyl)chroman-3-ene-6-yloxy)acetic acid] | – | 5 to 10 (≈ 10.3 to 20.5 µM) | 5 to 10 (≈ 10.3 to 20.5 µM) | 10 to 20 | 5 to 10 (≈ 10.3 to 20.5 µM) | – | 10 (≈ 20.5 µM) | 1 to 5 (≈ 2.05 to 10.3 µM) | 5 to 10 (≈ 10.3 to 20.5 µM) | > 20 | effective | 20 to 30 (≈ 41.1 to 61.6 µM) | 10 to 20 (≈ 20.5 to 41.1 µM) | – | 5 to 10 (≈ 10.3 to 20.5 µM) | – | –
CCCCCCCCCCCCC[C@]1(C)CCc2c(C)c(OCC(=O)O)c(C)c(C)c2O1 [Compound 24, 2,5,7,8-tetramethyl-(2R-(tridecyl)chroman-6-yloxy)acetic acid] | – | > 20 | > 20 | > 20 | > 20 | – | – | – | – | – | – | – | – | – | > 20 | > 20 | –
CCCCCCCCCCCCCCCCC[C@]1(C)CCc2c(C)c(OCC(=O)O)c(C)c(C)c2O1 [Compound 25, 2,5,7,8-tetramethyl-(2R-(heptadecyl)chroman-6-yloxy)acetic acid] | > 20 | > 20 | 20 to 30 (≈ 39.8 to 59.7 µM) | > 20 | > 20 | > 20 | – | > 20 | – | > 20 | effective | – | – | > 20 | 20 to 30 (≈ 39.8 to 59.7 µM) | > 20 | –
CC(C)=CCC/C(C)=C\C=C/[C@]1(C)CCc2c(C)c(OCC(=O)O)c(C)c(C)c2O1 [Compound 26] | 20 to 30 (≈ 48.5 to 72.7 µM) | > 20 | > 20 | 20 to 40 | 10 to 20 (≈ 24.2 to 48.5 µM) | 20 to 30 (≈ 48.5 to 72.7 µM) | > 20 | – | > 20 | > 20 | effective | > 20 | 20 to 30 (≈ 48.5 to 72.7 µM) | > 20 | > 20 | 20 to 40 (≈ 48.5 to 97 µM) | –
CC(C)=CCC/C(C)=C/CC/C(C)=C/CC[C@]1(C)CCc2c(C)c(OCC(=O)O)c(C)c(C)c2O1 [Compound 44] | – | – | – | – | – | – | – | – | – | – | – | – | – | – | – | – | EC50 ([20]; Homo sapiens, MCF7, 72 h): 10 µM; EC50 ([21]; Homo sapiens, 72 h): 5.6 µM; induction of apoptosis higher than alpha tocotrienol ([21]; MDA-MB-435 and MCF-7): 4-12 fold; induction of apoptosis higher than compound 1 ([21]; MDA-MB-435 and MCF-7): 4-5 fold; induction of apoptosis higher than vitamin E succinate ([21]; MDA-MB-435 and MCF-7): 4-6 fold; EC50 ([22]; Homo sapiens, MCF7, 5% serum): 5 µM; EC50 ([23]; Homo sapiens): 2.5 µM; antitumor activity (DNA synthesis arrest) higher than alpha-tocotrienol ([23]; MDA-MB-435 and MCF-7): 8-12 fold; antitumor activity (DNA synthesis arrest) higher than compound 1 ([23]; MDA-MB-435 and MCF-7): 4-6 fold; antitumor activity (DNA synthesis arrest) higher than vitamin E succinate ([23]; MDA-MB-435 and MCF-7): 4-7 fold
Cc1c(C)c2c(c(C)c1O)CC[C@@](C)(CCC[C@H](C)CCC[C@H](C)CCCC(C)C)O2 [α-tocopherol, RRR-α-tocopherol, reference compound] | – | – | – | – | – | – | – | – | – | – | – | – | – | – | – | – | EC50 [5, 26]: > 400 µM; EC50 [20]: > 100 µM; EC50 [21]: > 100 µM; EC50 [24]: > 400 µM; EC50 ([22]; 5% serum): > 100 µM; EC50 [23]: > 100 µM
α-tocotrienol [reference compound] | – | – | – | – | – | – | – | – | – | – | – | – | – | – | – | – | EC50 [5, 26]: 50 µM; EC50 [20]: 40 µM; EC50 [21]: 66 µM; EC50 [24]: 40 µM; EC50 ([22]; 5% serum): 40 µM; EC50 [23]: 29 µM
